Patent US11945813B2, “5-substituted 4-amino-1H-benzo[c][1,2,6]thiadiazine 2,2-dioxides and formulations and uses thereof” (Firmenich Incorporated, priority 2018, dated 2024)

Molecular target: T1, T1R2/T1R3 taste receptor (Homo sapiens, UniProt Q8TE23)
T1 sequence (Q8TE23 20-839): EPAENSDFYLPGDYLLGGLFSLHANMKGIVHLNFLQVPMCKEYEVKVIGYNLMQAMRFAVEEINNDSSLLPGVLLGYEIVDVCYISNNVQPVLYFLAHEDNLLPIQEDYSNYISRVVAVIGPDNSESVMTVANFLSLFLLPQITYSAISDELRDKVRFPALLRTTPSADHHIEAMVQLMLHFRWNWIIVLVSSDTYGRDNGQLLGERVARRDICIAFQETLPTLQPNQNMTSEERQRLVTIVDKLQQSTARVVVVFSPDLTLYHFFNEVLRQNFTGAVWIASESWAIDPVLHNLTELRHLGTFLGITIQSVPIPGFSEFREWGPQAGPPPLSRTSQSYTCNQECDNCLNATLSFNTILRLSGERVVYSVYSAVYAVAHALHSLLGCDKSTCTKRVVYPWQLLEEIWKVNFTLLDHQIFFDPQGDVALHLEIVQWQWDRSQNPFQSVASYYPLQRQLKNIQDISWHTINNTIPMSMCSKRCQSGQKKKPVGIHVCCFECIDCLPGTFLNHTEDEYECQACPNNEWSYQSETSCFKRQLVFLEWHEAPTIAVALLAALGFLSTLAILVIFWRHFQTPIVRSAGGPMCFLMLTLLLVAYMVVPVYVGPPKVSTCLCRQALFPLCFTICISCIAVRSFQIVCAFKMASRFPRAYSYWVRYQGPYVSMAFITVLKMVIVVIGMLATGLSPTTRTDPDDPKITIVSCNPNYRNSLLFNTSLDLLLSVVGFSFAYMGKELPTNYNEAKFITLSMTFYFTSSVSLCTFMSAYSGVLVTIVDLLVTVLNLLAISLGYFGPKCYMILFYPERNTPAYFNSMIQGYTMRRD
T1 sequence (Q7RTX0 21-852 partner): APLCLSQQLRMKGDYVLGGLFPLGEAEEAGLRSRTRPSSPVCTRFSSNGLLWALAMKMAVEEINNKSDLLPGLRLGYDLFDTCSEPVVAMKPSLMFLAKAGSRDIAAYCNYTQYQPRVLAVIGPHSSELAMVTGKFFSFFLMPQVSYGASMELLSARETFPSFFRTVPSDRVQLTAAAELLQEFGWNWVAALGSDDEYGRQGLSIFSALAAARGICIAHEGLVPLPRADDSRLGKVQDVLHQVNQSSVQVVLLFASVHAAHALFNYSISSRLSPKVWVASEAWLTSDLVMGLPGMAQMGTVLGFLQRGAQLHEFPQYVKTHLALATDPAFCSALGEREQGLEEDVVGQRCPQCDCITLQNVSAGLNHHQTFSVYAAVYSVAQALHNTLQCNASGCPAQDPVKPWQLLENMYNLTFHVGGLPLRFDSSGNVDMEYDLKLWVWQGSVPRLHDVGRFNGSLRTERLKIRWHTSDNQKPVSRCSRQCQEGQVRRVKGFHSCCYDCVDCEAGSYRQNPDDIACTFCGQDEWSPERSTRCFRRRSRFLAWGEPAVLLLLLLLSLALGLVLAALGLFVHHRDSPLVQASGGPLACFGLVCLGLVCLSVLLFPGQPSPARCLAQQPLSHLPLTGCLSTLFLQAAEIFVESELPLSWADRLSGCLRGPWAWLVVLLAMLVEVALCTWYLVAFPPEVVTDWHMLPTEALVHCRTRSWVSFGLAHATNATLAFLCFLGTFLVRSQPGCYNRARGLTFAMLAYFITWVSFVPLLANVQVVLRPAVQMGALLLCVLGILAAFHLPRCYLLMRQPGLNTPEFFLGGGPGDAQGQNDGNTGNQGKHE
Assay: Receptor-based assay: sweetener EC50 alone and with test compound (enhancement ratio)
Format: cell-based
Settings: for Fructose Enhancement EC50 Ratio: sweetener fructose; for Sucralose Enhancement EC50 Ratio: sweetener sucralose; for Sucrose Enhancement EC50 Ratio: sweetener sucrose
In short: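 Sucrose, sucralose or fructose EC50 measured on human T1R2/T1R3, alone and with 3, 10 or 50 μM test compound. Enhancement is the EC50 ratio without/with compound, binned A >20, B 10-20, C >1 to <10.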

Row | Compound | Fructose Enhancement EC50 Ratio (10 μM test compound) | Fructose Enhancement EC50 Ratio (50 μM test compound) | Sucralose Enhancement EC50 Ratio (10 μM test compound) | Sucralose Enhancement EC50 Ratio (50 μM test compound) | Sucrose Enhancement EC50 Ratio (3 μM test compound) | Sucrose Enhancement EC50 Ratio (10 μM test compound) | Sucrose Enhancement EC50 Ratio (50 μM test compound)
1 | NC1=NS(=O)(=O)Nc2cccc(OC[C@H]3CCCN(c4cc(C(=O)NCC5CC5)ccn4)C3)c21 [Compound 617] | C (A “C” value indicates an enhancement ratio greater than 1 and less than 10) | C (A “C” value indicates an enhancement ratio greater than 1 and less than 10) | A (An “A” value indicates an enhancement ratio of greater than 20) | A (An “A” value indicates an enhancement ratio of greater than 20) | C (A “C” value indicates an enhancement ratio greater than 1 and less than 10) | C (A “C” value indicates an enhancement ratio greater than 1 and less than 10) | C (A “C” value indicates an enhancement ratio greater than 1 and less than 10)
2 | CNC(=O)c1cccc(N2CCC[C@H](COc3cccc4c3C(N)=NS(=O)(=O)N4)C2)n1 [Compound 401] | – | – | A (An “A” value indicates an enhancement ratio of greater than 20) | A (An “A” value indicates an enhancement ratio of greater than 20) | C (A “C” value indicates an enhancement ratio greater than 1 and less than 10) | B (A “B” value indicates an enhancement ratio from 10 to 20) | C (A “C” value indicates an enhancement ratio greater than 1 and less than 10)
3 | CC(C)(COc1cccc2c1C(N)=NS(=O)(=O)N2)Nc1ccnc(-n2cccn2)n1 [Compound 202] | – | – | – | – | – | – | C (A “C” value indicates an enhancement ratio greater than 1 and less than 10)
4 | CCNC(=O)c1ccnc(N2CCC[C@H](COc3cccc4c3C(N)=NS(=O)(=O)N4)C2)c1 [Compound 601] | C (A “C” value indicates an enhancement ratio greater than 1 and less than 10) | C (A “C” value indicates an enhancement ratio greater than 1 and less than 10) | – | – | C (A “C” value indicates an enhancement ratio greater than 1 and less than 10) | C (A “C” value indicates an enhancement ratio greater than 1 and less than 10) | A (An “A” value indicates an enhancement ratio of greater than 20)
5 | NC1=NS(=O)(=O)Nc2cccc(OC[C@H]3CCCN(c4cccc(C(=O)NCC5CC5)n4)C3)c21 [Compound 417] | – | C (A “C” value indicates an enhancement ratio greater than 1 and less than 10) | A (An “A” value indicates an enhancement ratio of greater than 20) | A (An “A” value indicates an enhancement ratio of greater than 20) | C (A “C” value indicates an enhancement ratio greater than 1 and less than 10) | C (A “C” value indicates an enhancement ratio greater than 1 and less than 10) | C (A “C” value indicates an enhancement ratio greater than 1 and less than 10)
6 | CCN(CC)C(=O)c1ccc(N2CCC[C@H](COc3cccc4c3C(N)=NS(=O)(=O)N4)C2)nc1 [Compound 511] | – | C (A “C” value indicates an enhancement ratio greater than 1 and less than 10) | A (An “A” value indicates an enhancement ratio of greater than 20) | A (An “A” value indicates an enhancement ratio of greater than 20) | C (A “C” value indicates an enhancement ratio greater than 1 and less than 10) | C (A “C” value indicates an enhancement ratio greater than 1 and less than 10) | B (A “B” value indicates an enhancement ratio from 10 to 20)
7 | NC1=NS(=O)(=O)Nc2cccc(OC[C@H]3CCCN(c4ncc(F)cn4)C3)c21 [Compound 305] | C (A “C” value indicates an enhancement ratio greater than 1 and less than 10) | C (A “C” value indicates an enhancement ratio greater than 1 and less than 10) | A (An “A” value indicates an enhancement ratio of greater than 20) | A (An “A” value indicates an enhancement ratio of greater than 20) | C (A “C” value indicates an enhancement ratio greater than 1 and less than 10) | C (A “C” value indicates an enhancement ratio greater than 1 and less than 10) | C (A “C” value indicates an enhancement ratio greater than 1 and less than 10)
8 | CCNC(=O)c1ccc(N2CCC[C@H](COc3cccc4c3C(N)=NS(=O)(=O)N4)C2)nc1 [Compound 501] | C (A “C” value indicates an enhancement ratio greater than 1 and less than 10) | C (A “C” value indicates an enhancement ratio greater than 1 and less than 10) | A (An “A” value indicates an enhancement ratio of greater than 20) | A (An “A” value indicates an enhancement ratio of greater than 20) | C (A “C” value indicates an enhancement ratio greater than 1 and less than 10) | C (A “C” value indicates an enhancement ratio greater than 1 and less than 10) | C (A “C” value indicates an enhancement ratio greater than 1 and less than 10)
9 | CCCNc1nccc(NC(C)(C)COc2cccc3c2C(N)=NS(=O)(=O)N3)n1 [Compound 208] | C (A “C” value indicates an enhancement ratio greater than 1 and less than 10) | C (A “C” value indicates an enhancement ratio greater than 1 and less than 10) | A (An “A” value indicates an enhancement ratio of greater than 20) | A (An “A” value indicates an enhancement ratio of greater than 20) | C (A “C” value indicates an enhancement ratio greater than 1 and less than 10) | C (A “C” value indicates an enhancement ratio greater than 1 and less than 10) | C (A “C” value indicates an enhancement ratio greater than 1 and less than 10)
10 | CC(C)CNC(=O)c1ccnc(N2CCC[C@H](COc3cccc4c3C(N)=NS(=O)(=O)N4)C2)c1 [Compound 616] | – | C (A “C” value indicates an enhancement ratio greater than 1 and less than 10) | A (An “A” value indicates an enhancement ratio of greater than 20) | A (An “A” value indicates an enhancement ratio of greater than 20) | C (A “C” value indicates an enhancement ratio greater than 1 and less than 10) | C (A “C” value indicates an enhancement ratio greater than 1 and less than 10) | C (A “C” value indicates an enhancement ratio greater than 1 and less than 10)
11 | NC1=NS(=O)(=O)Nc2cccc(OC[C@H]3CCCN(c4ccc(C(=O)N5CCOCC5)cn4)C3)c21 [Compound 514] | C (A “C” value indicates an enhancement ratio greater than 1 and less than 10) | C (A “C” value indicates an enhancement ratio greater than 1 and less than 10) | A (An “A” value indicates an enhancement ratio of greater than 20) | B (A “B” value indicates an enhancement ratio from 10 to 20) | C (A “C” value indicates an enhancement ratio greater than 1 and less than 10) | C (A “C” value indicates an enhancement ratio greater than 1 and less than 10) | C (A “C” value indicates an enhancement ratio greater than 1 and less than 10)
